In article PMC4137327 (Journal of neurochemistry, 2014):
Entries after “also recorded” stand apart in the source; their conditions may differ. Read-outs that look alike come from different tables or passages of the source. Ends that are not written are not given here.

Tests used:
[1] = molecular target: T1, Ang-(1–7) peptidase purified from sheep brain medulla (Ovis aries, UniProt A0ACI6RWG7); experiment: Inhibitor profile of 125I-Ang-; format: biochemical; conditions: cocktail; for effect of inhibitor on peptidase activity (in words): enriched medullary peptidase, 60 min, 37°C
[2] = molecular target: T1, Ang-(1–7) peptidase purified from sheep brain medulla
ACE = conditions: read-out: reported IC50; ref Doulut et al. 1993; cited from earlier work
[3] = molecular target: Ang-(1–7) peptidase activity in CSF (Ovis aries, UniProt A0ACI6RWG7); experiment: Inhibitor profile of 125I-Ang-; format: biochemical, sheep; conditions: CSF 25 µl, cocktail, 60 min, 37°C

Molecule: O[C@@H](CS)[C@@H](O)CS (racemic) [DTT, dithiothreitol]
- effect of inhibitor on peptidase activity (in words) ([1]; inhibitor 5 mM, N=3): partial inhibition

Molecule: CC[C@H](C)[C@H](NC(=O)[C@H](Cc1ccc(O)cc1)NC(=O)[C@@H](NC(=O)[C@H](CCCNC(=N)N)NC(=O)[C@@H](N)CC(=O)O)C(C)C)C(=O)N[C@@H](Cc1cnc[nH]1)C(=O)N1CCC[C@H]1C(=O)N[C@@H](Cc1ccccc1)C(=O)O [Ang II]
- hydrolysis of unlabeled peptide by the peptidase ([2]; HPLC analysis, unlabeled peptide 0.4 mM, 24 hours, 37°C): < 5%

Molecule: CC(C)C[C@H](NC(=O)[C@@H](CC(=O)NO)Cc1ccccc1)C(=O)O [JMV-390, N-[3-[(hydroxyamino)carbonyl]-1-oxo-2(R)-benzylpropyl]-L-leucine]
- effect on the Ang-(1–4) peak (in words) ([1]; 1 nM JMV-390, purified enzyme): reduced the Ang-(1–4) peak
- effect on peptidase activity (in words) ([1]; 100 nM JMV-390, purified enzyme): essentially abolished activity
- effect on the peak of Ang-(1–4) from unlabeled Ang-(1–7) (in words) ([2]; 10 µM JMV-390, Ang-(1–7) 400 µM, 24 hours, 37°C (Figure 6B)): abolished
- IC50 (ACE): 70 µM

Molecule: O=S(=O)(F)Cc1ccccc1 [PMSF, phenylmethylsulfonyl fluoride]
- effect of inhibitor on peptidase activity (in words) ([1]; inhibitor 100 µM, N=3): insensitive; also recorded: did not inhibit activity

Molecule: c1cnc2c(c1)ccc1cccnc12 [o-phenanthroline]
- effect of inhibitor on peptidase activity (in words) ([1]; inhibitor 1 mM, N=3): abolished peptidase activity; also recorded: sensitive

Molecule: DRVYIHPFHL [Ang I]
- hydrolysis of unlabeled peptide by the peptidase ([2]; sheep, purified brain medulla peptidase, 24 h, 400 µM): < 5%

Molecule: aprotinin
- Inhibitor Sensitivity (% of control) ([3]; inhibitor 80 µM): 100 % of control
- effect of inhibitor on peptidase activity (in words) ([1]; inhibitor 80 µM): insensitive

B1: soybean trypsin inhibitor (protein, UniProt P01070 25-205, looked up)
Trypsin inhibitor A: DFVLDNEGNPLENGGTYYILSDITAFGGIRAAPTGNERCPLTVVQSRNELDKGIGTIISSPYRIRFIAEGHPLSLKFDSFAVIMLCVGIPTEWSVVEDLPEGPAVKIGENKDAMDGWFRLERVSDDEFNNYKLVFCPQQAEDDKCGDIGISIDHDDGTRRLVVSKNKPLVVQFQKLDKESL
- Inhibitor Sensitivity (% of control) ([3]; inhibitor 100 µM, mean ± SEM): 101 ± 2 % of control
- effect of inhibitor on peptidase activity (in words) ([1]; inhibitor 100 µM, N=3): insensitive
